Test system: not listed separately
Test: Antiproliferative activity against human HCC2998 cells assessed as growth inhibition after 48 hrs by sulforhodamine B assay
Type: functional
Conditions: HCC 2998, 48 h, read-out: LC50 (the source's name)
In the case of `CNC(=O)c1cc(Oc2ccc3nc(NC(=O)Nc4cc(C(F)(F)F)cc(C(F)(F)F)c4)sc3c2)ccn1`, the CC50 is reported as 7850 nM.

Biological target: CYP2C19 (Homo sapiens, UniProt P33261)
Sequence (P33261 whole entry): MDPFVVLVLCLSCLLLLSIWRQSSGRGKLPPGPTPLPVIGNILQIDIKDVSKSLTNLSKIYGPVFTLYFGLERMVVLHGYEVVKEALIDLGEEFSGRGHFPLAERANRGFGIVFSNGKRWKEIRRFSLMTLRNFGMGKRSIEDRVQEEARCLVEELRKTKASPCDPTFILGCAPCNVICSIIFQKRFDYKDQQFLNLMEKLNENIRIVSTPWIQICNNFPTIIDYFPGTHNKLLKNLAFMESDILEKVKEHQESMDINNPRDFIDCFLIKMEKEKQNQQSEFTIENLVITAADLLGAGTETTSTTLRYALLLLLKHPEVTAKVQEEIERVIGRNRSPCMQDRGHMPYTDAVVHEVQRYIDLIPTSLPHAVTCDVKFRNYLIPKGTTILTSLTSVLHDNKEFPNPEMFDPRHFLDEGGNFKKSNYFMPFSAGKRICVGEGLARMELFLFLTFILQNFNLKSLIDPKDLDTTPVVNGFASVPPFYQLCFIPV
Test: Inhibition of recombinant human CYP2C19 assessed as remaining enzyme activity at 10 uM after 5 mins in presence of NADP by fluorescence plate reader analysis
Type: ADME
Conditions: read-out: Activity
Compound `CNC(=O)c1cc(Oc2ccc3nc(NC(=O)Nc4cc(C(F)(F)F)cc(C(F)(F)F)c4)sc3c2)ccn1` has an activity at 5 min, 10 µM of 70.1%.

Test system: NCI-H322M
Test: Antiproliferative activity against human NCI-H322M cells assessed as cell growth at 10^-8 M after 48 hrs by sulforhodamine B assay
Type: functional
Conditions: read-out: Activity
In the case of `CNC(=O)c1cc(Oc2ccc3nc(NC(=O)Nc4cc(C(F)(F)F)cc(C(F)(F)F)c4)sc3c2)ccn1`, the growth at 0.01 µM is reported as 95%.

Test system: EKVX
Test: Antiproliferative activity against human EKVX cells assessed as cell growth at 10^-6 M after 48 hrs by sulforhodamine B assay
Type: functional
Conditions: read-out: Activity
`CNC(=O)c1cc(Oc2ccc3nc(NC(=O)Nc4cc(C(F)(F)F)cc(C(F)(F)F)c4)sc3c2)ccn1` showed a growth at 1 µM of 60%.

Test system: not listed separately
Test: Antiproliferative activity against human SF295 cells assessed as cell growth at 10^-7 M after 48 hrs by sulforhodamine B assay
Type: functional
Conditions: SF-295, 48 h, read-out: Activity
Work on `CNC(=O)c1cc(Oc2ccc3nc(NC(=O)Nc4cc(C(F)(F)F)cc(C(F)(F)F)c4)sc3c2)ccn1` yielded a growth at 0.1 µM of 92%.

Test system: not listed separately
Test: Antiproliferative activity against human RPMI8226 cells assessed as cell growth at 10^-8 M after 48 hrs by sulforhodamine B assay
Type: functional
Conditions: RPMI-8226, 48 h, read-out: Activity
`CNC(=O)c1cc(Oc2ccc3nc(NC(=O)Nc4cc(C(F)(F)F)cc(C(F)(F)F)c4)sc3c2)ccn1` gave a growth at 0.01 µM of 104%.

Test system: not listed separately
Test: Antiproliferative activity against human UO31 cells assessed as cell growth at 10^-8 M after 48 hrs by sulforhodamine B assay
Type: functional
Conditions: UO-31, 48 h, read-out: Activity
`CNC(=O)c1cc(Oc2ccc3nc(NC(=O)Nc4cc(C(F)(F)F)cc(C(F)(F)F)c4)sc3c2)ccn1` showed a growth at 0.01 µM of 95%.

Test system: not listed separately
Test: Antiproliferative activity against human SNB75 cells assessed as cell growth at 10^-8 M after 48 hrs by sulforhodamine B assay
Type: functional
Conditions: SNB-75, 48 h, read-out: Activity
In the case of `CNC(=O)c1cc(Oc2ccc3nc(NC(=O)Nc4cc(C(F)(F)F)cc(C(F)(F)F)c4)sc3c2)ccn1`, the growth at 0.01 µM is reported as 77%.

Test system: not listed separately
Test: Antiproliferative activity against human RXF393 cells assessed as cell growth at 10^-8 M after 48 hrs by sulforhodamine B assay
Type: functional
Conditions: RXF 393, 48 h, read-out: Activity
Work on `CNC(=O)c1cc(Oc2ccc3nc(NC(=O)Nc4cc(C(F)(F)F)cc(C(F)(F)F)c4)sc3c2)ccn1` yielded a growth at 0.01 µM of 89%.

Test system: MDA-MB-231
Test: Antiproliferative activity against human MDA-MB-231 cells assessed as growth inhibition after 48 hrs by sulforhodamine B assay
Type: functional
Conditions: MDA-MB-231, 48 h
With `CNC(=O)c1cc(Oc2ccc3nc(NC(=O)Nc4cc(C(F)(F)F)cc(C(F)(F)F)c4)sc3c2)ccn1` the GI50 was 829 nM and the TGI was 2620 nM.

Same assay, conditions: MDA-MB-231, 48 h, read-out: LC50 (the source's name)
With `CNC(=O)c1cc(Oc2ccc3nc(NC(=O)Nc4cc(C(F)(F)F)cc(C(F)(F)F)c4)sc3c2)ccn1` the CC50 was 7500 nM.

Test system: not listed separately
Test: Antiproliferative activity against human HL-60(TB) cells assessed as cell growth at 10^-6 M after 48 hrs by sulforhodamine B assay
Type: functional
Conditions: HL-60, 48 h, read-out: Activity
Work on `CNC(=O)c1cc(Oc2ccc3nc(NC(=O)Nc4cc(C(F)(F)F)cc(C(F)(F)F)c4)sc3c2)ccn1` yielded a growth at 1 µM of 75%.

Test system: NCI-H23
Test: Antiproliferative activity against human NCI-H23 cells assessed as cell growth at 10^-6 M after 48 hrs by sulforhodamine B assay
Type: functional
Conditions: NCI-H23, 48 h, read-out: Activity
`CNC(=O)c1cc(Oc2ccc3nc(NC(=O)Nc4cc(C(F)(F)F)cc(C(F)(F)F)c4)sc3c2)ccn1` showed a growth at 1 µM of 36%.

Test system: ACHN
Test: Antiproliferative activity against human ACHN cells assessed as growth inhibition after 48 hrs by sulforhodamine B assay
Type: functional
Conditions: not given
`CNC(=O)c1cc(Oc2ccc3nc(NC(=O)Nc4cc(C(F)(F)F)cc(C(F)(F)F)c4)sc3c2)ccn1` gave a GI50 of 542 nM, an LC50 of 5700 nM and a TGI of 1980 nM.

Test system: not listed separately
Test: Antiproliferative activity against human UACC257 cells assessed as cell growth at 10^-4 M after 48 hrs by sulforhodamine B assay
Type: functional
Conditions: UACC-257, 48 h, read-out: Activity
With `CNC(=O)c1cc(Oc2ccc3nc(NC(=O)Nc4cc(C(F)(F)F)cc(C(F)(F)F)c4)sc3c2)ccn1` the growth at 100 µM was -94%.

Test system: EKVX
Test: Antiproliferative activity against human EKVX cells assessed as cell growth at 10^-8 M after 48 hrs by sulforhodamine B assay
Type: functional
Conditions: read-out: Activity
Work on `CNC(=O)c1cc(Oc2ccc3nc(NC(=O)Nc4cc(C(F)(F)F)cc(C(F)(F)F)c4)sc3c2)ccn1` yielded a growth at 0.01 µM of 81%.

Test system: not listed separately
Test: Antiproliferative activity against human TK10 cells assessed as cell growth at 10^-8 M after 48 hrs by sulforhodamine B assay
Type: functional
Conditions: TK-10, 48 h, read-out: Activity
`CNC(=O)c1cc(Oc2ccc3nc(NC(=O)Nc4cc(C(F)(F)F)cc(C(F)(F)F)c4)sc3c2)ccn1` gave a growth at 0.01 µM of 95%.

Test system: not listed separately
Test: Antiproliferative activity against human HOP62 cells assessed as cell growth at 10^-7 M after 48 hrs by sulforhodamine B assay
Type: functional
Conditions: HOP-62, 48 h, read-out: Activity
With `CNC(=O)c1cc(Oc2ccc3nc(NC(=O)Nc4cc(C(F)(F)F)cc(C(F)(F)F)c4)sc3c2)ccn1` the growth at 0.1 µM was 91%.

Test system: NCI-H460
Test: Antiproliferative activity against human NCI-H460 cells assessed as cell growth at 10^-6 M after 48 hrs by sulforhodamine B assay
Type: functional
Conditions: NCI-H460, 48 h, read-out: Activity
Work on `CNC(=O)c1cc(Oc2ccc3nc(NC(=O)Nc4cc(C(F)(F)F)cc(C(F)(F)F)c4)sc3c2)ccn1` yielded a growth at 1 µM of 62%.

Test system: not listed separately
Test: Antiproliferative activity against human HCT15 cells assessed as cell growth at 10^-8 M after 48 hrs by sulforhodamine B assay
Type: functional
Conditions: HCT-15, 48 h, read-out: Activity
`CNC(=O)c1cc(Oc2ccc3nc(NC(=O)Nc4cc(C(F)(F)F)cc(C(F)(F)F)c4)sc3c2)ccn1` gave a growth at 0.01 µM of 88%.

Test system: not listed separately
Test: Antiproliferative activity against human SNB19 cells assessed as cell growth at 10^-8 M after 48 hrs by sulforhodamine B assay
Type: functional
Conditions: SNB-19, 48 h, read-out: Activity
With `CNC(=O)c1cc(Oc2ccc3nc(NC(=O)Nc4cc(C(F)(F)F)cc(C(F)(F)F)c4)sc3c2)ccn1` the growth at 0.01 µM was 99%.

Test system: not listed separately
Test: Antiproliferative activity against human OVCAR5 cells assessed as cell growth at 10^-6 M after 48 hrs by sulforhodamine B assay
Type: functional
Conditions: OVCAR-5, 48 h, read-out: Activity
Compound `CNC(=O)c1cc(Oc2ccc3nc(NC(=O)Nc4cc(C(F)(F)F)cc(C(F)(F)F)c4)sc3c2)ccn1` has a growth at 1 µM of 77%.
